Source: patent US20020137929A1, “1 - (3-heterocyclylphenyl) isothiourea, -isourea, -guanidine and -amidine herbicidal agents” (Intellectual Property Department, BASF Aktiengesellschaft, priority 1998, published 2002)

Legend:
ORYSAT (Rice, Tebonnet) [1] = assay: Rice tolerance to post-transplant applications, flooded paddy conditions (Table III); type: in vivo, Oryza sativa, (L.) Tebonnet
Summary of the method: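 Two ten-day-old Tebonnet seedlings transplanted into flooded silt loam (water 1.5 to 3 cm above soil); three days later the water surface was treated with compound in aqueous/acetone 50/50 at about 0.0313 to 0.500 kg/ha. Visual 0-9 injury rating versus control after three to four weeks in greenhouse.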

[2] = test system: CHEAL (Lambsquarters, Common); assay: Postemergence herbicidal evaluation; type: in vivo, Chenopodium album; conditions: for CHEAL herbicidal rating: postemergence
Summary of the method: (§1)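 Scores (0–9) reflect plant stand, vigor, malformation, size, chlorosis and general appearance relative to control, read 4 to 5 weeks after treatment and averaged where tests were repeated. Application: about 0.0156–0.500 kg/ha sprayed at 40 psi onto two-week seedlings.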

ORYSAT (Rice, Tebonnet) [3] = assay: Rice tolerance to post-transplant applications, flooded paddy conditions (Table IV); type: in vivo, Oryza sativa, (L.) Tebonnet
Summary of the method: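 Containers holding 3–5 cm weeds and rice at 1.5–2.5 leaves are flooded to 1.5–3 cm above soil. Compound in 50/50 v/v aqueous/acetone is then added directly to the water, about 0.0313–0.500 kg/ha. Plants are kept in the greenhouse and rated 0–9 visually at 3–4 weeks.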

ORYSAT (Rice, Tebonnet) [4] = assay: Preemergence herbicidal evaluation; type: in vivo, Oryza sativa, (L.) Tebonnet; conditions: rated 4-5 weeks after treatment; for ORYSAT rating: preemergence, 0-9 scale
Summary of the method: (§2)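 Greenhouse preemergence test: seed-soil mix sown on ~1 inch soil; aqueous acetone spray at equivalent of ~0.0156–0.500 kg/ha; greenhouse-held and watered; scored 0–9 visually at 4–5 weeks.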

[5] = test system: TRZAWR (Wheat, Winter, cv Riband); assay: Postemergence herbicidal evaluation; type: in vivo, Triticum aestivum; conditions: for TRZAWR herbicidal rating: postemergence
Summary of the method: as §1

MOOVA (Monochoria) = assay: Postemergence weed control under flooded paddy conditions; type: in vivo, Monochoria vaginalis; conditions: postemergence weeds, rated 3 to 4 weeks after treatment
Summary of the method: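 Weeds 3 to 5 cm tall and rice seedlings at the 1.5 to 2.5 leaf stage were flooded, with water held 1.5 to 3 cm above the soil. Compounds in 50/50 v/v aqueous/acetone went into the flood water at about 0.0313 to 0.500 kg/ha. Visual 0-9 ratings versus control were made 3 to 4 weeks later.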

[6] = test system: CHEAL (Lambsquarters, Common); assay: Preemergence herbicidal evaluation; type: in vivo, Chenopodium album; conditions: rated 4-5 weeks after treatment; for CHEAL rating: preemergence, 0-9 scale
Summary of the method: as §2

CASOB (Sicklepod) = assay: Postemergence herbicidal evaluation; type: in vivo, Cassia obtusifolia; conditions: for CASOB herbicidal rating: postemergence
Summary of the method: as §1

[7] = 0.0313 kg/ha, post-transplant rice, flooded paddy, rated 3-4 weeks after treatment
[8] = 0.0625 kg/ha, post-transplant rice, flooded paddy, rated 3-4 weeks after treatment
[9] = 0.1250 kg/ha, post-transplant rice, flooded paddy, rated 3-4 weeks after treatment
[10] = 0.2500 kg/ha, post-transplant rice, flooded paddy, rated 3-4 weeks after treatment
[11] = Rate 0.0313 kg/ha, flooded paddy, post-transplant rice, rated 3 to 4 weeks after treatment
[12] = Rate 0.0625 kg/ha, flooded paddy, post-transplant rice, rated 3 to 4 weeks after treatment
[13] = Rate 0.1250 kg/ha, flooded paddy, post-transplant rice, rated 3 to 4 weeks after treatment
[14] = Rate 0.2500 kg/ha, flooded paddy, post-transplant rice, rated 3 to 4 weeks after treatment

Structure (SMILES): CN1C(=O)C(CC(=O)O)SC1=Nc1cc(-n2c(=O)cc(C(F)(F)F)n(C)c2=O)c(F)cc1Cl (centres unmarked) [Compound 63, 2-{{2-Chloro-5-[3,6-dihydro-3-methyl-2,6-dioxo-4-(trifluoromethyl)-1(2H)-pyrimidinyl]-4-fluoro-phenyl}imino}-3-methyl-4-oxo-5-thiazolidineacetic acid]
- ORYSAT herbicidal effect rating (rice tolerance) (ORYSAT (Rice, Tebonnet) [1]; in vivo): 3.0
- Postemergence herbicidal rating CHEAL ([2]; Rate 0.0158 kg/ha): 9.0
- Postemergence herbicidal rating CHEAL ([2]; Rate 0.0315 kg/ha): 9.0
- Postemergence herbicidal rating CHEAL ([2]; Rate 0.0630 kg/ha): 7.0
- Herbicidal rating ORYSAT (rice tolerance) (ORYSAT (Rice, Tebonnet) [3]; in vivo): 3.0
- Preemergence herbicidal rating ORYSAT (ORYSAT (Rice, Tebonnet) [4]; rate 0.0156 kg/ha): 0.0
- Preemergence herbicidal rating ORYSAT (ORYSAT (Rice, Tebonnet) [4]; rate 0.0313 kg/ha): 0.0
- Preemergence herbicidal rating ORYSAT (ORYSAT (Rice, Tebonnet) [4]; rate 0.0625 kg/ha): 5.0
- Preemergence herbicidal rating ORYSAT (ORYSAT (Rice, Tebonnet) [4]; rate 0.1250 kg/ha): 7.0
- Preemergence herbicidal rating ORYSAT (ORYSAT (Rice, Tebonnet) [4]; rate 0.2500 kg/ha): 7.0
- Postemergence herbicidal rating TRZAWR ([5]; Rate 0.0158 kg/ha): 5.5
- Postemergence herbicidal rating TRZAWR ([5]; Rate 0.0315 kg/ha): 6.0
- Postemergence herbicidal rating TRZAWR ([5]; Rate 0.0630 kg/ha): 7.0
- Herbicidal rating MOOVA (MOOVA (Monochoria); Rate 0.0313 kg/ha): 9.0
- Herbicidal rating MOOVA (MOOVA (Monochoria); Rate 0.0625 kg/ha): 9.0
- Herbicidal rating MOOVA (MOOVA (Monochoria); Rate 0.1250 kg/ha): 9.0
- Herbicidal rating MOOVA (MOOVA (Monochoria); Rate 0.2500 kg/ha): 9.0
- Preemergence herbicidal rating CHEAL ([6]; rate 0.0313 kg/ha): 7.0
- Preemergence herbicidal rating CHEAL ([6]; rate 0.0625 kg/ha): 9.0
- Preemergence herbicidal rating CHEAL ([6]; rate 0.1250 kg/ha): 9.0
- Preemergence herbicidal rating CHEAL ([6]; rate 0.2500 kg/ha): 9.0
- Postemergence herbicidal rating CASOB (CASOB (Sicklepod); Rate 0.0158 kg/ha): 0.0
- Postemergence herbicidal rating CASOB (CASOB (Sicklepod); Rate 0.0315 kg/ha): 3.0
- Postemergence herbicidal rating CASOB (CASOB (Sicklepod); Rate 0.0630 kg/ha): 5.0

Structure (SMILES): C=CCN1C(=O)C(CC(=O)OCCF)SC1=Nc1cc(-n2c(=O)cc(C(F)(F)F)n(C)c2=O)c(F)cc1Cl (centres unmarked) [Compound 86, 2-Fluoroethyl 3-allyl-2-{{2-chloro-5-[3,6-dihydro-3-methyl-2,6-dioxo-4-(trifluoromethyl)-1(2H)-pyrimidinyl]-4-fluorophenyl}imino}-4-oxo-5-thiazolidineacetate]
- ORYSAT herbicidal effect rating (rice tolerance) (ORYSAT (Rice, Tebonnet) [1]; [7]): 3.0
- ORYSAT herbicidal effect rating (rice tolerance) (ORYSAT (Rice, Tebonnet) [1]; [8]): 4.0
- ORYSAT herbicidal effect rating (rice tolerance) (ORYSAT (Rice, Tebonnet) [1]; [9]): 4.0
- ORYSAT herbicidal effect rating (rice tolerance) (ORYSAT (Rice, Tebonnet) [1]; [10]): 5.0
- CHEAL herbicidal rating ([2]; rate 0.0156 kg/ha): 9.0
- CHEAL herbicidal rating ([2]; rate 0.0313 kg/ha): 9.0
- CHEAL herbicidal rating ([2]; rate 0.0625 kg/ha): 9.0
- CHEAL herbicidal rating ([2]; rate 0.1250 kg/ha): 9.0
- Herbicidal rating ORYSAT (rice tolerance) (ORYSAT (Rice, Tebonnet) [3]; [11]): 3.0
- Herbicidal rating ORYSAT (rice tolerance) (ORYSAT (Rice, Tebonnet) [3]; [12]): 4.0
- Herbicidal rating ORYSAT (rice tolerance) (ORYSAT (Rice, Tebonnet) [3]; [13]): 4.0
- Herbicidal rating ORYSAT (rice tolerance) (ORYSAT (Rice, Tebonnet) [3]; [14]): 5.0
- ORYSAT rating (ORYSAT (Rice, Tebonnet) [4]; 0.0156 kg/ha): 0.0
- ORYSAT rating (ORYSAT (Rice, Tebonnet) [4]; 0.0313 kg/ha): 0.0
- ORYSAT rating (ORYSAT (Rice, Tebonnet) [4]; 0.0625 kg/ha): 0.0
- ORYSAT rating (ORYSAT (Rice, Tebonnet) [4]; 0.1250 kg/ha): 0.0
- ORYSAT rating (ORYSAT (Rice, Tebonnet) [4]; 0.2500 kg/ha): 2.0
- ORYSAT rating (ORYSAT (Rice, Tebonnet) [4]; 0.5000 kg/ha): 6.0
- TRZAWR herbicidal rating ([5]; rate 0.0156 kg/ha): 6.0
- TRZAWR herbicidal rating ([5]; rate 0.0313 kg/ha): 7.0
- TRZAWR herbicidal rating ([5]; rate 0.0625 kg/ha): 7.5
- TRZAWR herbicidal rating ([5]; rate 0.1250 kg/ha): 8.5
- Herbicidal rating MOOVA (MOOVA (Monochoria); Rate 0.0313 kg/ha): 9.0
- Herbicidal rating MOOVA (MOOVA (Monochoria); Rate 0.0625 kg/ha): 9.0
- Herbicidal rating MOOVA (MOOVA (Monochoria); Rate 0.1250 kg/ha): 9.0
- Herbicidal rating MOOVA (MOOVA (Monochoria); Rate 0.2500 kg/ha): 9.0
- CHEAL rating ([6]; 0.0156 kg/ha): 4.0
- CHEAL rating ([6]; 0.0313 kg/ha): 4.0
- CHEAL rating ([6]; 0.0625 kg/ha): 9.0
- CHEAL rating ([6]; 0.1250 kg/ha): 9.0
- CHEAL rating ([6]; 0.2500 kg/ha): 9.0
- CHEAL rating ([6]; 0.5000 kg/ha): 9.0
- CASOB herbicidal rating (CASOB (Sicklepod); rate 0.0156 kg/ha): 1.0
- CASOB herbicidal rating (CASOB (Sicklepod); rate 0.0313 kg/ha): 2.0
- CASOB herbicidal rating (CASOB (Sicklepod); rate 0.0625 kg/ha): 7.0
- CASOB herbicidal rating (CASOB (Sicklepod); rate 0.1250 kg/ha): 9.0

Structure (SMILES): CN1C(=O)C(CC(=O)OCCF)SC1=Nc1cc(-n2c(=O)cc(C(F)(F)F)n(C)c2=O)c(F)cc1Cl (centres unmarked) [Compound 93, 2-Fluoroethyl 2-{{2-chloro-5-[3,6-dihydro-3-methyl-2,6-dioxo-4-(trifluoromethyl)-1(2H)-pyrimidinyl]-4-fluorophenyl}imino}-3-methyl-4-oxo-5-thiazolidineacetate]
- ORYSAT herbicidal effect rating (rice tolerance) (ORYSAT (Rice, Tebonnet) [1]; [7]): 0.0
- ORYSAT herbicidal effect rating (rice tolerance) (ORYSAT (Rice, Tebonnet) [1]; [8]): 0.0
- ORYSAT herbicidal effect rating (rice tolerance) (ORYSAT (Rice, Tebonnet) [1]; [9]): 0.0
- ORYSAT herbicidal effect rating (rice tolerance) (ORYSAT (Rice, Tebonnet) [1]; [10]): 3.0
- CHEAL herbicidal rating ([2]; rate 0.0158 kg/ha): 4.0
- CHEAL herbicidal rating ([2]; rate 0.0315 kg/ha): 4.0
- CHEAL herbicidal rating ([2]; rate 0.0630 kg/ha): 9.0
- Herbicidal rating ORYSAT (rice tolerance) (ORYSAT (Rice, Tebonnet) [3]; [11]): 0.0
- Herbicidal rating ORYSAT (rice tolerance) (ORYSAT (Rice, Tebonnet) [3]; [12]): 0.0
- Herbicidal rating ORYSAT (rice tolerance) (ORYSAT (Rice, Tebonnet) [3]; [13]): 0.0
- Herbicidal rating ORYSAT (rice tolerance) (ORYSAT (Rice, Tebonnet) [3]; [14]): 3.0
- ORYSAT rating (ORYSAT (Rice, Tebonnet) [4]; 0.0313 kg/ha): 0.0
- ORYSAT rating (ORYSAT (Rice, Tebonnet) [4]; 0.0625 kg/ha): 0.0
- ORYSAT rating (ORYSAT (Rice, Tebonnet) [4]; 0.1250 kg/ha): 2.0
- ORYSAT rating (ORYSAT (Rice, Tebonnet) [4]; 0.2500 kg/ha): 4.0
- TRZAWR herbicidal rating ([5]; rate 0.0158 kg/ha): 5.0
- TRZAWR herbicidal rating ([5]; rate 0.0315 kg/ha): 6.0
- TRZAWR herbicidal rating ([5]; rate 0.0630 kg/ha): 7.5
- Herbicidal rating MOOVA (MOOVA (Monochoria); Rate 0.0313 kg/ha): 9.0
- Herbicidal rating MOOVA (MOOVA (Monochoria); Rate 0.0625 kg/ha): 9.0
- Herbicidal rating MOOVA (MOOVA (Monochoria); Rate 0.1250 kg/ha): 9.0
- Herbicidal rating MOOVA (MOOVA (Monochoria); Rate 0.2500 kg/ha): 9.0
- CHEAL rating ([6]; 0.0313 kg/ha): 3.0
- CHEAL rating ([6]; 0.0625 kg/ha): 9.0
- CHEAL rating ([6]; 0.1250 kg/ha): 9.0
- CHEAL rating ([6]; 0.2500 kg/ha): 9.0
- CASOB herbicidal rating (CASOB (Sicklepod); rate 0.0158 kg/ha): 0.0
- CASOB herbicidal rating (CASOB (Sicklepod); rate 0.0315 kg/ha): 1.0
- CASOB herbicidal rating (CASOB (Sicklepod); rate 0.0630 kg/ha): 2.0
